Experiments:
melanoma PDX = assay: Patient-derived xenograft (PDX); assay type: in vivo
Procedure: Fig. 7 Erianin exerts antitumor efficacy in melanoma and colorectal cancer in vivo. a Tumor pharmacodynamic assay was performed in tumor-bearing NPG mice (tumor has been passaged from melanoma patient to mice for three generations). The photographs show tumors from melanoma PDX mice treated with vehicle or drugs. b The effect of erianin on the volume of PDX tumors over time (within 78 days) was plotted. Vehicle, erianin (50 mg/kg, once a day), vemurafenib (50 mg/kg, once a day), erianin and vemurafenib combination therapy, cobimetinib (5 mg/kg, twice a week) or vemurafenib and cobimetinib combination therapy (once a day and twice a week, respectively) were administered by oral gavage, n = 8 in each group. Tumor volume was measured once a week. […] Scale bars: 20 μm. One-way ANOVA test. ***p < 0.001. e Antitumor efficacy of erianin with or without immunity using B16F10 cell xenograft in C57BL-6J mouse. f, g Trend of tumor volume over time and tumor weight was measured after treatment on the last day of the study.

Ros(h) = biological target: T1, Ros(h) (Homo sapiens, UniProt P08922); assay: KinaseProfiler enzyme profiling; assay type: biochemical; conditions: 100 nM
T1 construct: purchased Eurofins KinaseProfiler
Summary of the method: (§1)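 A 70-kinase in vitro panel received erianin at 100 nM; measurements were repeated twice.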

A375 (BRAF V600E) CDX = assay: Cell-derived xenograft (CDX); conditions: 50 mg/kg, oral gavage
Procedure: (§2) Tumor volume (mm^3) = (length × width × height) × 0.52. SK-MEL-2: n = 10; A375 and SK-MEL-28: n = 8; HCT116: n = 9. b The photographs show tumors from CDX mice treated with vehicle, erianin, vemurafenib, or the combination. c The weight of the tumors was quantified and expressed as the treatment groups compared with the vehicle-treated group. […] The tissue lysates were prepared from CDX tumor tissues in each treatment group. […] Each point represents the IOD values of four quantified data from one mouse. Scale bars: 50 μm.
(§3) The animal experiments were performed according to the guidelines approved by the Zhengzhou University Institutional Animal Care and Use Committee. A375 cell line (1 × 10^7 cell/mouse), SK-MEL-28 cell line (5 × 10^6 cell/mouse), SK-MEL-2 cell (5 × 10^6 cell/mouse), and HCT116 cell line (1 × 10^7 cell/mouse) were injected subcutaneously into the NOD-SCID mice (Vital River Labs, Beijing, China). For the melanoma PDX mice model, the tumor was taken after surgical operation and implanted into the NPG (Vital River Labs, Beijing, China) mice under a sterile environment. For the colorectal cancer PDX mice model, NOD-SCID mice were selected as carriers for tumor growth. The measurement of tumor size was performed twice a week using vernier caliper and the calculation of tumor volume was done according to tumor volume (mm^3) = length × width × height × 0.52.

[1] = tested on: SK-MEL-28 (BRAF V600E) CDX; assay: Cell-derived xenograft (CDX); conditions: 50 mg/kg, oral gavage
Procedure: as §2, §3

[2] = tested on: SK-MEL-2, A375, SK-MEL-28, and HCT 116 cells; assay: MTT growth assay at 24, 48, or 72 h; assay type: cell-based, human; conditions: both BRAF and RAS mutant cell lines
Procedure: The synergism and antagonism (CI value) were determined and analyzed using CompuSyn 1.0.
For cytotoxicity test, normal NHDF (5000 cells/well) and NHEM cell line (3000 cells/well) were planted into 96-well plates. For cell proliferation assay, A375 (1500 cells/well), SK-MEL-28 (3000 cells/well), SK-MEL-2 (4000 cells/well), and HCT116 (1500 cells/well) were planted into 96-well plates, determined concentration of drug was added after culture for 24 h. The viability of the cells was detected within 72 h using MTT solution (5 mg/mL). The absorbance at 570/490 nm was quantified by the use of the microplate reader.

NEK1(h) = biological target: T2, NEK1(h) (Homo sapiens, UniProt Q96PY6); assay: KinaseProfiler enzyme profiling; assay type: biochemical
T2 construct: purchased Eurofins KinaseProfiler
Summary of the method: as §1

HIPK3(h) = biological target: T3, HIPK3(h) (Homo sapiens, UniProt Q9H422); assay: KinaseProfiler enzyme profiling; assay type: biochemical
T3 construct: purchased Eurofins KinaseProfiler
Summary of the method: as §1

T1 sequence (P08922 28-2347): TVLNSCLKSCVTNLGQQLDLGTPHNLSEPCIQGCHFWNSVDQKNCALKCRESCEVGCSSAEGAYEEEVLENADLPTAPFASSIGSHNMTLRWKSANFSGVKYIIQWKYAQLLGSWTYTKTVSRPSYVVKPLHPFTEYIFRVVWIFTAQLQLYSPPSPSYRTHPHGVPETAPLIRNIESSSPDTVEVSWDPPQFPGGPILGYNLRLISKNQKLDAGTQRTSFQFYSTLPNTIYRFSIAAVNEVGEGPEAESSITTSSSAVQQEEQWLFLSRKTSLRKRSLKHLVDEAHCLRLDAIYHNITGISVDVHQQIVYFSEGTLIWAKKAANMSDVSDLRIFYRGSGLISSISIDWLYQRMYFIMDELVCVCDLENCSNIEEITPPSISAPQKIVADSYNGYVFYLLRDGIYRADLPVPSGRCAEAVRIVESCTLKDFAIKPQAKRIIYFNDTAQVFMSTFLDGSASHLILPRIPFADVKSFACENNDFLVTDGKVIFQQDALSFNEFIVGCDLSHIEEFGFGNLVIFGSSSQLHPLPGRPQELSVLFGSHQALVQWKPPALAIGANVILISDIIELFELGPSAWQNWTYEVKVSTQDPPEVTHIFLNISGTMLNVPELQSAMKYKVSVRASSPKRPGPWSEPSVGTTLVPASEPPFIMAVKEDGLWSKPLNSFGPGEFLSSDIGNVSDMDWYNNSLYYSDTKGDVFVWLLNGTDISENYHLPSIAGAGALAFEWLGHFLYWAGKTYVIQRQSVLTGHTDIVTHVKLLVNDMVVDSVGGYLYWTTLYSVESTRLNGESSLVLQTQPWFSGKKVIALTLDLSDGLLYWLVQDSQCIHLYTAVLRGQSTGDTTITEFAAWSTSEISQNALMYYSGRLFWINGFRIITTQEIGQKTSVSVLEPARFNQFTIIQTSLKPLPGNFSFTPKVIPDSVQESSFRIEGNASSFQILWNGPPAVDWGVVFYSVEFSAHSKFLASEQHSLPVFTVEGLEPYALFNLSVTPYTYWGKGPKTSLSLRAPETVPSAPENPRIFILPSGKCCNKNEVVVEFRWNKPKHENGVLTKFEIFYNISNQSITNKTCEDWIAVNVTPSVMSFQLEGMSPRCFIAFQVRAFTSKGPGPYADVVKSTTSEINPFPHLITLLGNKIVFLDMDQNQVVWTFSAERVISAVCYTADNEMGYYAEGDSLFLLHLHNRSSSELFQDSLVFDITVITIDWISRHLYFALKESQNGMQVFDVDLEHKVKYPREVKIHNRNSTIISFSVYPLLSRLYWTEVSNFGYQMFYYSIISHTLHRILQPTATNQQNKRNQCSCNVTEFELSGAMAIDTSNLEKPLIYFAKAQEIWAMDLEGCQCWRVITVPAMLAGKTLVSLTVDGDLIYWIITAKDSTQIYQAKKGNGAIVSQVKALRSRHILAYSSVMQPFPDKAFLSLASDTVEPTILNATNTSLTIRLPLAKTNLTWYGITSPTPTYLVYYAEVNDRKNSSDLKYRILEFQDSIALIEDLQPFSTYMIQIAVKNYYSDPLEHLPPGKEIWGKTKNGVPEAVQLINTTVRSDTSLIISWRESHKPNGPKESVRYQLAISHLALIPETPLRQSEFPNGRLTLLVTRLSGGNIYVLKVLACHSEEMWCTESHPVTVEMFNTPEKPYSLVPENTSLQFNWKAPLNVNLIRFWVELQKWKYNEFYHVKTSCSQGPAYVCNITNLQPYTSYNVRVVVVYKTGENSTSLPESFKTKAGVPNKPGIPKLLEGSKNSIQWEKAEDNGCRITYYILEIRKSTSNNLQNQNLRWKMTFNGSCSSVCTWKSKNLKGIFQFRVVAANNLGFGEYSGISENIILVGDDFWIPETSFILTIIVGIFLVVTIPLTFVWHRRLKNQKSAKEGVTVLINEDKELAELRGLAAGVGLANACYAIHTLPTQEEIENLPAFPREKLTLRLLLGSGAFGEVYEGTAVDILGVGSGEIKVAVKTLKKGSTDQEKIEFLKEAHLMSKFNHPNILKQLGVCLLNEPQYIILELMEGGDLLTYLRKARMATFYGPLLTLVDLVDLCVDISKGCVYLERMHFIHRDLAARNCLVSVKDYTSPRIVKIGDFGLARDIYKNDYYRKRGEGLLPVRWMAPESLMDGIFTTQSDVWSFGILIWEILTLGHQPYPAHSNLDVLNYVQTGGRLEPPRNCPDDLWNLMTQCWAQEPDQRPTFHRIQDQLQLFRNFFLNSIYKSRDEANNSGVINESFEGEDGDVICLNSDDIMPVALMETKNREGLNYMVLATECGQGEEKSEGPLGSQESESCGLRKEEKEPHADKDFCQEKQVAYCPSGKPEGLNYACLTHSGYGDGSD
T3 sequence (Q9H422 whole entry): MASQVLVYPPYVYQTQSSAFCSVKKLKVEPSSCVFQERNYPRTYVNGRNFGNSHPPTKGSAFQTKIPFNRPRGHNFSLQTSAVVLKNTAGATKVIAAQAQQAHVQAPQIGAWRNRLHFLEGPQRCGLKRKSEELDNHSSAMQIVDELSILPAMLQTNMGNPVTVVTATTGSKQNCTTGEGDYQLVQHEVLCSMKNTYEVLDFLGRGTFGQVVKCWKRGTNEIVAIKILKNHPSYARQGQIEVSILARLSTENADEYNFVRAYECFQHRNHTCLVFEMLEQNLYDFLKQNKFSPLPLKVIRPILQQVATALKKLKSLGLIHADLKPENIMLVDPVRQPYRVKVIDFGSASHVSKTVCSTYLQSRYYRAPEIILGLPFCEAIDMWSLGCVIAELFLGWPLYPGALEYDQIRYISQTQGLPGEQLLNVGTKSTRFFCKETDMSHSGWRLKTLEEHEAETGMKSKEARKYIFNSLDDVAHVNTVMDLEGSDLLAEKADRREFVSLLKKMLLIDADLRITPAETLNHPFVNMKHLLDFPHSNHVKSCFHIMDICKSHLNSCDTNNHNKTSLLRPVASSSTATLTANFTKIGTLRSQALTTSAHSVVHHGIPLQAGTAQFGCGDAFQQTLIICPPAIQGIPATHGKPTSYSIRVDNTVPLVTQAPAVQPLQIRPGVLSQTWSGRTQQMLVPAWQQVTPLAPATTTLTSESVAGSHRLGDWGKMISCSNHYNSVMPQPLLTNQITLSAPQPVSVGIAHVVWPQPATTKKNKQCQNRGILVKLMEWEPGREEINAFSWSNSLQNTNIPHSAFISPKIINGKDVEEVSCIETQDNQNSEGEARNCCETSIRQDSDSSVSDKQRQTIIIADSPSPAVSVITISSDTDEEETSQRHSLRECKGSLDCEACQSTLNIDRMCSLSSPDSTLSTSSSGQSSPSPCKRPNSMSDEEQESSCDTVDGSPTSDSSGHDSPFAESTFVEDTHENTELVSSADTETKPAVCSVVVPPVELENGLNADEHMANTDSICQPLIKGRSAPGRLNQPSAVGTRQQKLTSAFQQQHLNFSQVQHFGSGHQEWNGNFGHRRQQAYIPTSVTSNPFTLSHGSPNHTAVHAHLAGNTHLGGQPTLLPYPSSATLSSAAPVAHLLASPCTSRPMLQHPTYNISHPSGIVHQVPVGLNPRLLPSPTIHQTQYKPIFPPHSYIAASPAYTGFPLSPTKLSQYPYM
T2 sequence (Q96PY6 whole entry): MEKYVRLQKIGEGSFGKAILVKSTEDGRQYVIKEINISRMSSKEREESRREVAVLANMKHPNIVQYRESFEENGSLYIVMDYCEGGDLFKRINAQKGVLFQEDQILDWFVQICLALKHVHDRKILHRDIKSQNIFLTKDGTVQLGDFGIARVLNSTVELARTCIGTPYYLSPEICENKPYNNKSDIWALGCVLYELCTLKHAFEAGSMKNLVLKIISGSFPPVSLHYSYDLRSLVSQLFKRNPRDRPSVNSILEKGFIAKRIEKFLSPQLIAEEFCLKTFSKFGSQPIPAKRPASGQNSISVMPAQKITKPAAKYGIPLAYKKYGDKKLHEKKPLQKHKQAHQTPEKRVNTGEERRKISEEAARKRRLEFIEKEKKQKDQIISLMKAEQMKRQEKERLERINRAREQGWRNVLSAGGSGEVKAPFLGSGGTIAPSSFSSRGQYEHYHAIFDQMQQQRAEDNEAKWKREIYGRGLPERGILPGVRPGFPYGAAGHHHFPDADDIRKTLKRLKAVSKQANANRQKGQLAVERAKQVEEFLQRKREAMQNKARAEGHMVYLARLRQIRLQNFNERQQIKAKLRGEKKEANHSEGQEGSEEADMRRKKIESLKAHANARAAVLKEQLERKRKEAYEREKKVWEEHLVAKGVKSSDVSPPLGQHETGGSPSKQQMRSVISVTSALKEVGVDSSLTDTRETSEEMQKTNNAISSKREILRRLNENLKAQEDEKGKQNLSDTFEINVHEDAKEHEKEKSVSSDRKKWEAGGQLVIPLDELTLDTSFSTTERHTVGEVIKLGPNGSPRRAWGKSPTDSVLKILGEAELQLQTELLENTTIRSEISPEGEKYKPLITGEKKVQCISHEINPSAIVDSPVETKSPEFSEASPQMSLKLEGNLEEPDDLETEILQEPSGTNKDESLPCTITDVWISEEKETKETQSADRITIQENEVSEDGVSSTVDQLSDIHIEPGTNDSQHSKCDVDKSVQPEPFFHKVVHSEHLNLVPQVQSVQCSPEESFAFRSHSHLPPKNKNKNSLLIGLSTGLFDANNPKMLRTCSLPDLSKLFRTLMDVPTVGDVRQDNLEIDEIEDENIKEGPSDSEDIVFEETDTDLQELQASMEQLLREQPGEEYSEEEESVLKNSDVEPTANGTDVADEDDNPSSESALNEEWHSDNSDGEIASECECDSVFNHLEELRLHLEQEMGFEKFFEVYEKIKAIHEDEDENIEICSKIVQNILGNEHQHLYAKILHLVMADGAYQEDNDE

COc1ccc(CCc2cc(OC)c(OC)c(OC)c2)cc1O [Erianin]
body weight (melanoma PDX; 50 mg/kg once a day, oral gavage): without significant changes
toxicity sign (HE staining) (melanoma PDX; HE staining of liver and spleen): neither erianin group nor erianin-vemurafenib combination therapy showed toxicity sign
tumor volume (melanoma PDX; oral gavage, erianin, vemurafenib 50 mg/kg once a day, cobimetinib 5 mg/kg twice a week, within 78 days): significant decrease
activity at 0.1 µM (Ros(h)): 103%
body weight (A375 (BRAF V600E) CDX): no significant reduction
tumor volume (A375 (BRAF V600E) CDX; vs vehicle-treated group): significant decrease
body weight [1]: no significant reduction
tumor volume ([1]; vs vehicle-treated group): significant decrease
proliferation [2]: markedly suppress

C=C1C(=O)[C@]23[C@H](O)[C@H]1CC[C@H]2[C@@]12CO[C@]3(O)[C@@H](O)[C@@H]1C(C)(C)CC[C@@H]2O [Oridonin]
activity at 10 µM (NEK1(h)): 77%

COc1cc2oc(-c3ccc(O)c(O)c3)cc(=O)c2c(O)c1OC [Cirsiliol]
activity at 10 µM (HIPK3(h)): 106%
